# According to US20060204502A1 (priority 2004, published 2006):
# Values joined by “and” are separate entries in the source; they are usually repeats but may differ in a detail not shown here. Identical values can stand only once. Like-named read-outs stand apart in the source and are kept apart here.
# Key:
# P-gp = P-gp (Homo sapiens, UniProt P08183); type: cell-based; conditions: for % of Rh123 Negative Cells (cells expressing P-gp activity): HeL023 cells
# Experimental: Rhodamine 123 Efflux Assay: 5×10^5 cells from each subline were loaded with 50 ng/ml of rhodamine 123 for 30 minutes at 37 C in medium. The cells were washed and resuspended in dye-staining agent free medium for 3 hours at 37 C. to allow rhodamine 123 efflux. The cells were then washed twice and the fluorescence of intracellular rhodamine 123 were analysed with Flow cytometer (residual fluorescence FRES). The fluorescence was compared with loaded cells maintained at 4 C. to prevent drug export (maximal fluorescence FMAX). […] Cells from each subline that were not being exposed to rhodamine 123 were used as negative controls.
# Rhodamine 123 (Rh123) retention, a P-gp functional assay, was studied in all cell lines. This assay was performed by incubating cells with Rh123 and determining Rh123 accumulation by measuring its fluorescence. The maximum load of Rh123 (FMAX) was quantified at the end of treatment harvesting the cells and storing them at 4° C. to prevent any active Rh123 efflux. The P-gp drug efflux was allowed incubating Rh123-loaded cells in fresh new medium Rh123-free for 3 hours at 37° C. After this incubation, residual fluorescence (FRES) was measured and compared to FMAX.
# A375 cells = assay: Flow cytometry cell cycle (G2/M) and apoptosis (sub-G1) analysis, A375; type: cell-based, human; conditions: for EC50: Homo sapiens; for reduction of apoptosis induced by paclitaxel: A375, paclitaxel 25 ng/ml, PD98059 20 μM, U0126 30 μM, SB203580 1 μM
# Experimental: Flow Cytometry Analysis: A375 and NCTC2544 adherent cells were trypsinized, mixed with floating cells, washed with PBS and permeabilised in 70% (vol/vol) ethanol/PBS solution at 4° C. for at least 24 hours. Jurkat, HeL023 and PBMC cells were centrifuged for 10 minutes at 1000×g. The cell pellet was then resuspended and permeabllised in 70% (vol/vol) ethanol/PBS solution at 4° C. for at least 24 hours. The cells were washed with PBS and the DNA was stained with a PBS solution, containing 20 μg/ml of propidium iodide and 100 μg/ml of RNAse, at room temperature for 30 minutes. Cells were analysed by FACScan (Becton-Dickinson) and the content of DNA was evaluated by the Cell-LISYS program (Becton-Dickinson). Cell distribution among cell cycle phases and apoptotic cells was evaluated as previously described (Secchiero et al., 2001). Briefly, the cell cycle distribution is shown as the percentage of cells containing 2n (G1 phase), 4n (G2 and M phases), 4n>x>2n. DNA amount (S phase) judged by propidium iodide staining. The apoptotic population is the percentage of cells with DNA content lower than 2n.
# After 24 hours, cells were collected for flow cytometry analysis. PD 98059 was used at 20 uM as an inhibitor of MEK to prevent MEK-1 activation. […]
# EC50 values were obtained by analysing G2/M accumulation dose response curve. ECMAX values were obtained by analysing sub-G1 accumulation dose response curve. Paclitaxel values have units of ng/ml.
# HIF-1α = HIF-1α protein immunoblot in hypoxic cells; type: cell-based, human; conditions: A375; for effect on Cl-IB-MECA-induced increase of HIF-1α protein expression / effect on adenosine-induced HIF-1α protein expression: hypoxia 4 hours; for effect on Cl-IB-MECA-induced increase of HIF-1α protein expression: Cl-IB-MECA 100 nM, U0126 10 and 30 μM, SB202190 1 and 10 μM; for effect on adenosine-induced HIF-1α protein expression: adenosine 100 μM, antagonist 100 nM
# Experimental: Cell culture and hypoxia treatment: Cells were maintained in DMEM (A375), EMEM (NCTC 2544) or RPMI 1640 (U87MG, U2OS) medium containing 10% fetal calf serum, penicillin (100 U/ml), streptomycin (100 ug/ml), and L-glutamine (2 mM) at 37° C. in 5% CO2/95% air. Cells were passaged two or three times weekly at a ratio between 1:5 and 1:10. Hypoxic exposure was in BBL™ GasPak pouch™ System (Becton Dickinson) that reduce oxygen concentration of less than 2% within 2 hours of incubation at 35° C.
# Cells were harvested and washed with ice-cold PBS containing 1 mM sodium orthovanadate, AEBSF 104 mM, aprotinin 0.08 mM, leupeptin 2 mM, bestatin 4 mM, pepstatin A 1.5 mM, E-64 1.4 mM. Cells were then lysed in Triton lysis buffer. The protein concentration was determined using BCA protein assay kit (Pierce). […] The gel was then electroblotted onto a nitrocellulose membrane. Membranes were blocked with 5% nonfat dry milk in PBS containing 0.1% Tween-20 and incubated with antibodies against HIF-1α (1:250 dilution) and HIF-1β (1:1000 dilution) in 5% nonfat dry milk in PBS/0.1% Tween-20 overnight at 4° C. Aliquots of total protein sample (50 ug) were analyzed using antibodies specific for phosphorylated (Thr183/Tyr185) or total p44/p42 MAPK (1:5000 dilution), phosphorylated (Thr180/Tyr182) or total p38 MAPK (1:1000 dilution) and for A3 receptor (1 µg/ml dilution). Filters were washed and incubated for 1 hour at room temperature with peroxidase-conjugated secondary antibodies against mouse and rabbit IgG (1:2000 dilution). […] The membranes were then stripped and reprobed with tubulin (1:250) to ensure equal protein loading.
# U0126 was used at 10 and 30 uM as inhibitor of MEK-1 and MEK-2 to prevent p44 and p42 MAPK activation. SB202190 was used at 1 and 10 uM as inhibitor of p38 MAPK.
# Densitometry analysis: The intensity of each band in immunoblot assay was quantified using molecular analyst/PC densitometry software (Bio-Rad). […] The data were presented as the mean±S.E., and analyzed by the Student's test.
# [1] = system: Human Colon Carcinoma HT29; assay: MTT growth inhibitory assay, HT29; type: cell-based; conditions: for Enhancement Factor: HT29 cells, A3 antagonist at 0.5 μg/ml
# Experimental: (§1) Interpretation of the EF is dependent upon the concentrations of A3 receptor antagonist tested. For example, when using very low concentrations of A3 receptor antagonist, any EF above 1.0 is synergistic if the A3 receptor antagonist concentration is below the threshold of cell growth inhibition.
# (§2) The cells are sub-cultured twice a week.
# (§3) Vinblastine sulfate salt was obtained from Sigma Chemical Co., (V1377). Irinotecan was diluted with culture medium. All other agents were dissolved in 100% DMSO at appropriate concentrations. The DMSO stock solutions were diluted 100-fold with growth medium so that the final DMSO concentration was 1%.
# [2] = administered at 100 mg/m^2; cited from earlier work
# [3] = system: Human Pancreatic Cancer Panc-1; assay: MTT growth inhibitory assay, Panc-1; type: cell-based; conditions: Panc-1 cells, A3 antagonist at 0.5 μg/ml
# Experimental: as §1, §2, §3
# [4] = system: Human Lung Carcinoma SKMES; assay: MTT growth inhibitory assay, SKMES; type: cell-based; conditions: SKMES cells, A3 antagonist at 0.5 μg/ml
# Experimental: as §1, §2, §3
# Human Melanoma A375 = assay: MTT growth inhibitory assay, A375; conditions: A375 cells
# Experimental: An exemplary assay may comprise the following steps: Cells (1000-1500 cells/well) are seeded in a 96-well micro culture plate in a total volume of 100 μl/well. After overnight incubation in a humidified incubator at 37° C. with 5% CO2-95% air, chemotherapeutic drug solutions diluted with culture medium at various concentrations are added in the amount of 100 μl to each well. The plates are placed in a humidified incubator at 37° C. with 5% CO2-95% air for 7-10 days. The plates are then centrifuged briefly and 100 μl of the growth medium is removed. Cell cultures are incubated with 50 μl of MTT [3-(4,5-dimethylthiazol-2-yl)-2,5-diphenyl-tetrazolium bromide] reagent (1 mg/ml in Dulbecco's phosphate-buffered saline) for 4 hr at 37° C. The resultant purple formazan precipitate is solubilized with 200 μl of 0.04 N HCl in isopropanol. Absorbance is measured at a wavelength of 595 nm and at a reference wavelength of 655 nm using a Bio-Rad Model 3550 Microplate Reader. Preferably, all tests are run in duplicate for each dose level. […] The EZED50 computer program estimates the concentration of agent that inhibits cell growth by 50% as compared to the control cells. This is termed the IC50 and is determined by curve fitting test data using the following four logistic equation. [formula]
# If testing concentrations are properly selected (i.e., no or little growth inhibition at low concentrations and complete inhibition at high concentrations), EZED50 program fits the data extremely well and estimates the IC50 value accurately. […] In these instances, the data could be re-analyzed by fixing the Amax value.
# In this case, the IC50 could be estimated more accurately if both the Amax and Amin values are fixed. Although it may be feasible to estimate IC50 value by fixing Amax and/or Amax and Amin without repeating the experiment, the best way to determine the IC50 accurately is to decrease or increase the concentrations of the test agent and repeat the test.
# Inhibitory assay testing is also used to determine enhanced therapeutic effects from combining A3 receptor antagonists with other tumor inhibiting agents. The inhibitory cell growth assays are run with and without selected concentrations of A3 receptor antagonists. An enhanced therapeutic effect is present when the IC50 of the tumor inhibiting agent is lower with the A3 receptor antagonist.
# Quantitatively, the enhancement factor (EF) is calculated by dividing the IC50 value of the tumor inhibiting agent for a tumor cell line by the IC50 value of the agent with A3 receptor antagonist for the same cell line: [formula]
# The cells are cultured in a T25 Falcon Tissue Culture flask in a humidified incubator at 37° C. with 5% CO2-95% air. The cells are sub-cultured twice a week.
# Chain of P-gp (P08183 whole entry): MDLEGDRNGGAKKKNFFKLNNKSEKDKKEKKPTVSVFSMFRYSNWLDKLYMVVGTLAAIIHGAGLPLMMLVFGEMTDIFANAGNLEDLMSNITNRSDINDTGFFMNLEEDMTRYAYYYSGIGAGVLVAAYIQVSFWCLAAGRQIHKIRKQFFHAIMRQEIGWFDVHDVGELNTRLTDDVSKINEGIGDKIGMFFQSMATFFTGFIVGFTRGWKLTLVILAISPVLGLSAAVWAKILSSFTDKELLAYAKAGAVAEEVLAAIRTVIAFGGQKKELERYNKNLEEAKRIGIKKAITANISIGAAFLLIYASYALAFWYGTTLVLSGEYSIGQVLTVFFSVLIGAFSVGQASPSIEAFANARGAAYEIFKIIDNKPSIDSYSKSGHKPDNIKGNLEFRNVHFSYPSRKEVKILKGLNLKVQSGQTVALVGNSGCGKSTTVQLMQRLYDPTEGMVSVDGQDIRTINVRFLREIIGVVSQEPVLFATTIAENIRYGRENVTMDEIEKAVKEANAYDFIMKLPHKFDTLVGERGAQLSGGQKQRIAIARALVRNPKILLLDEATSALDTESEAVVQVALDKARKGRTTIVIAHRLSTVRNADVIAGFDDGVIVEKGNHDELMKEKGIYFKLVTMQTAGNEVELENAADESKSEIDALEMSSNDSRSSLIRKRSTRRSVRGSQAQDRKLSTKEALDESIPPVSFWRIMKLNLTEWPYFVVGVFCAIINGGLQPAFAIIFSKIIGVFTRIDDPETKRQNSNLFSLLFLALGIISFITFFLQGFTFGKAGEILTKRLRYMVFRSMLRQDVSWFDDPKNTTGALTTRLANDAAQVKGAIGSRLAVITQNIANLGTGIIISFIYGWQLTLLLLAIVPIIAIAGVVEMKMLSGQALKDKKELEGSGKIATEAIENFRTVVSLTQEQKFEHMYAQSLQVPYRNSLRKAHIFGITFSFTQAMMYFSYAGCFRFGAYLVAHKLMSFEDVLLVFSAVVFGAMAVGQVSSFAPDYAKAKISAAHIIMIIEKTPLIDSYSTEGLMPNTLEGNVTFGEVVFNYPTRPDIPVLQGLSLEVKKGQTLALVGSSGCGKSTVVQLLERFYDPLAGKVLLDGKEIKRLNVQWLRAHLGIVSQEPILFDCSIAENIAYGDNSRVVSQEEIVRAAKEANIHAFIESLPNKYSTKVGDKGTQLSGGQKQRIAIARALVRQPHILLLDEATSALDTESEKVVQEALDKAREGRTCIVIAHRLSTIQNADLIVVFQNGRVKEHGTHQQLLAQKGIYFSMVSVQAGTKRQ
structure (smiles),measurement,setting,value
"CCCn1cc2c(nc(NC(=O)Nc3ccccc3)n3nc(-c4ccco4)nc23)n1 [MRE 3055F20, 5-N-(4-phenylcarbamoyl)amino-8-propyl-2(2furyl)-pyrazolo[4,3e]-1,2,4-triazolo-[1,5c]pyrimidine]",% of Rh123 Negative Cells (cells expressing P-gp activity),P-gp; 10 μM,0.8 ± 0.2%
same,EC50,"A375 cells; A-375, read-out: SEC50",310 ± 30 nM
Cn1cc2c(nc(NC(=O)Nc3ccncc3)n3nc(-c4ccco4)nc23)n1 [MRE 3005F20],effect on Cl-IB-MECA-induced HIF-1α modulation,"HIF-1α; hypoxia, antagonist 10 and 100 nM, Cl-IB-MECA 10 and 100 nM",able to abrogate the effect of Cl-IB-MECA
Oc1ccc(-c2nc(-c3ccncc3)c(-c3ccc(F)cc3)[nH]2)cc1 [SB202190],effect on Cl-IB-MECA-induced increase of HIF-1α protein expression,HIF-1α,able to inhibit
"O=C1c2c(O)ccc(O)c2C(=O)c2c(NCCNCCO)ccc(NCCNCCO)c21 [mitoxantrone, reference compound]","fold more refractory, HT29 vs A375 cell line (IC50)",[1],approximately 30 fold
CC(=O)O[C@@]12CO[C@@H]1C[C@H](O)[C@@]1(C)C(=O)[C@H](O)C3=C(C)[C@@H](OC(=O)[C@H](O)[C@@H](NC(=O)OC(C)(C)C)c4ccccc4)C[C@@](O)([C@@H](OC(=O)c4ccccc4)[C@H]21)C3(C)C [docetaxel],"acute hypersensitivity reaction, % of patients",[2],13%
same,"severe hypersensitivity reaction, % of patients",[2],1.2%
CC[C@]1(O)C[C@@H]2CN(CCc3c([nH]c4ccccc34)[C@@](C(=O)OC)(c3cc4c(cc3OC)N(C)[C@H]3[C@@](O)(C(N)=O)[C@H](O)[C@]5(CC)C=CCN6CC[C@]43[C@@H]65)C2)C1 [vindesine],EC50,"A375 cells; A-375, 24 h, read-out: EC50 (G2/M accumulation)",1.9 ± 0.2 nM
"COc1cccc2c1C(=O)c1c(O)c3c(c(O)c1C2=O)C[C@@](O)(C(=O)CO)C[C@@H]3O[C@H]1C[C@H](N)[C@H](O)[C@H](C)O1 [doxorubicin, reference compound]","fold more refractory, HT29 vs A375 cell line (IC50)",[1],approximately 30 fold
"CCN(CC)c1ccc(NC(=O)Nc2nc3nn(C)cc3c3nc(-c4ccco4)nn23)cc1.Cl [IL-10, N-1-(4-diethylamino-phenyl)-N′—S-[8-methyl-2-(2-furyl)-pyrazolo[4,3-e]1,2,4-triazolo[1,5-c]pyrimidine]-urea]",% of Rh123 Negative Cells (cells expressing P-gp activity),P-gp; 10 μM,0.4 ± 0.2%
same,Enhancement Factor,[1]; enhancement of docetaxel IC50,5.5
same,Enhancement Factor,[1]; enhancement of doxorubicin IC50,1.5
same,Enhancement Factor,[1]; enhancement of irinotecan IC50,1.2
same,Enhancement Factor,[1]; enhancement of paclitaxel IC50,2.5
same,Enhancement Factor,[3]; enhancement of docetaxel IC50,1.4
same,Enhancement Factor,[3]; enhancement of paclitaxel IC50,1.7
same,Enhancement Factor,[4]; enhancement of docetaxel IC50,2.8
same,Enhancement Factor,[4]; enhancement of irinotecan HCL IC50,1.7
same,Enhancement Factor,[4]; enhancement of paclitaxel IC50,2.8
same,Enhancement Factor,[4]; enhancement of vinblastine IC50,1.4
same,Enhancement Factor,"Human Melanoma A375; enhancement of docetaxel IC50, A3 antagonist at 0.5 μg/ml",8.4
same,Enhancement Factor,"Human Melanoma A375; enhancement of docetaxel IC50, A3 antagonist at 5 μg/ml",2.9
same,Enhancement Factor,"Human Melanoma A375; enhancement of paclitaxel IC50, A3 antagonist at 0.5 μg/ml",3.7
same,Enhancement Factor,"Human Melanoma A375; enhancement of paclitaxel IC50, A3 antagonist at 5 μg/ml",8.8 and 9.2
"Cc1ccc(NC(=O)Nc2nc3nn(C)cc3c3nc(-c4ccco4)nn23)cc1 [MRE 3046F20, 5-N-(4-methylphenyl-carbamoyl)amino-8-methyl-2(2-furyl)-pyrazolo-[4,3e]-1,2,4-triazolo[1,5-c]pyrimidine]",% of Rh123 Negative Cells (cells expressing P-gp activity),P-gp; 10 μM,22.0 ± 1.0%
same,EC50,"A375 cells; A-375, read-out: SEC50",570 ± 60 nM
N#CC(=C(/N)Sc1ccccc1N)/C(C#N)=C(\N)Sc1ccccc1N [Compound U0126],effect on MRE 3008F20 blockade of P-gp,"P-gp; A375, U0126 30 μM 30 minutes, then MRE3008F20 10 μM",failed to prevent MRE 3008F20 blockade of P-gp
same,reduction of apoptosis induced by paclitaxel,A375 cells,73±10%
same,effect on Cl-IB-MECA-induced increase of HIF-1α protein expression,HIF-1α,able to inhibit
C[S+]([O-])c1ccc(-c2nc(-c3ccncc3)c(-c3ccc(F)cc3)[nH]2)cc1 (stereo not shown) [SB203580],reduction of apoptosis induced by paclitaxel,A375 cells,did not exert any effect
CCCn1c(=O)c2[nH]c(-c3cc(OCC(=O)Nc4ccc5c(c4)OCO5)nn3C)nc2n(CCC)c1=O [MRE 2029F20],effect on adenosine-induced HIF-1α protein expression,HIF-1α,not able to prevent
"Nc1nc2ccc(Cl)cc2c2nc(-c3ccco3)nn12 [CGS 15943, 5-amino-9-chloro-2-(furyl)1,2,4-triazolo[1,5-c]quinazoline, reference compound]",% of Rh123 Negative Cells (cells expressing P-gp activity),P-gp; 70 μM,87.1 ± 1.0%
same,EC50,"A375 cells; A-375, read-out: SEC50",12600 ± 1410 nM
"Nc1nc2c(cnn2CCc2ccccc2)c2nc(-c3ccco3)nn12 [SCH 58261, 5-amino-7-(2-phenylethyl)-2-(2-furyl)-pyrazolo[4,3-e]-1,2,4-triazolo[1,5-c]pyrimidine]",effect on adenosine-induced HIF-1α protein expression,HIF-1α,not able to prevent
